{
  "source": "patent US20030215462A1",
  "about": "“Use of UGT inhibitors to increase bioavailability” (priority 2001, published 2003)",
  "key": {"[1]": {"system": "T1, UGT enzymes of human liver microsomes", "T1 construct": "percentage of control metabolism, 7-HFC glucuronidation; percentage of control metabolism, 7-HFC glucuronidation", "assay": "Kinetic and Ki studies of inhibitors of 7-HFC glucuronidation in human liver microsomes", "format": "biochemical", "conditions": "7-HFC 20-500 μM"}, "[2]": {"system": "UGT enzymes of human liver microsomes", "assay": "Inhibition of raloxifene glucuronidation (G1, G2) in human liver microsomes", "format": "biochemical", "conditions": "for % of control metabolism (SD, n = 3), raloxifene glucuronide G1 / % of control metabolism (SD, n = 3), raloxifene glucuronide G2: human liver microsomes 250 μg/ml, 15 min", "from_the_text": "Compounds were eluted using a binary solvent gradient system. […] Solvent B was methanol. […] Detection was at 280 nm."}, "[3]": {"biological_target": "T2, UGT enzymes of human liver microsomes (Homo sapiens, UniProt P16662)", "T2 construct": "residual metabolism (percentage of control), zidovudine glucuronidation; other: liver lot 062101; residual metabolism (percentage of control), zidovudine glucuronidation; residual metabolism (percentage of control)", "T2 sequence (P16662 1-529)": "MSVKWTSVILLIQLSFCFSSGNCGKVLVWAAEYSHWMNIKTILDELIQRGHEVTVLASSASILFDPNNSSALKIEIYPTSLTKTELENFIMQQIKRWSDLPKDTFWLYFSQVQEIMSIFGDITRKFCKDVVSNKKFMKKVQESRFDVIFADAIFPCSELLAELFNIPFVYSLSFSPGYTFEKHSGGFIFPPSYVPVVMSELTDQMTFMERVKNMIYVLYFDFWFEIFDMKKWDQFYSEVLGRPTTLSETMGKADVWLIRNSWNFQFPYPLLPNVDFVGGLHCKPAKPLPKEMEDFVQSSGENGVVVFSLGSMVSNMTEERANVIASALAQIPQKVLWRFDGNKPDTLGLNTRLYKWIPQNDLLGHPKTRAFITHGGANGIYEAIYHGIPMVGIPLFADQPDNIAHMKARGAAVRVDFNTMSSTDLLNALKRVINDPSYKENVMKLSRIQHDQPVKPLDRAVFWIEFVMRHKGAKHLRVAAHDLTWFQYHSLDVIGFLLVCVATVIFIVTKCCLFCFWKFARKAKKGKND", "assay": "Inhibition of zidovudine glucuronidation in human liver microsomes", "format": "biochemical", "conditions": "liver lot 062101", "procedure": "Compounds were eluted using a binary solvent gradient system where solvent A was dilute phosphoric acid (pH 3) and solvent B was acetonitrile.\nStandardized incubations utilized 500 μM zidovudine substrate, 1 mg/ml microsomal protein, 5 mM UDPGA and a 30 min incubation time. […] Int."}, "[4]": {"system": "T3, UGT enzymes of human liver microsomes", "T3 construct": "residual metabolism (percentage of control), labetalol LG1; other: labetalol 50 μM; residual metabolism (percentage of control), labetalol LG1; residual metabolism (percentage of control), labetalol LG2; inhi", "assay": "Inhibition of labetalol glucuronidation (LG1, LG2) in human liver microsomes", "format": "biochemical", "conditions": "labetalol 50 μM; inhibitor 100 μM"}, "[5]": {"system": "UGT enzymes of pooled human jejunum microsomes", "assay": "Inhibition of 2ME2 glucuronidation (MG1) in pooled human jejunum microsomes", "format": "biochemical", "conditions": "jejunum HJ61, 2ME2 50 μM", "from_the_text": "Compounds were eluted using a binary solvent gradient system where solvent A was dilute phosphoric acid (pH 3) and solvent B was 80:20 acetonitrile-methanol. […] Detection was at 280 nm."}, "UGT1A9": {"biological_target": "T4, UGT1A9 (Homo sapiens, UniProt O60656)", "T4 sequence (O60656 26-530)": "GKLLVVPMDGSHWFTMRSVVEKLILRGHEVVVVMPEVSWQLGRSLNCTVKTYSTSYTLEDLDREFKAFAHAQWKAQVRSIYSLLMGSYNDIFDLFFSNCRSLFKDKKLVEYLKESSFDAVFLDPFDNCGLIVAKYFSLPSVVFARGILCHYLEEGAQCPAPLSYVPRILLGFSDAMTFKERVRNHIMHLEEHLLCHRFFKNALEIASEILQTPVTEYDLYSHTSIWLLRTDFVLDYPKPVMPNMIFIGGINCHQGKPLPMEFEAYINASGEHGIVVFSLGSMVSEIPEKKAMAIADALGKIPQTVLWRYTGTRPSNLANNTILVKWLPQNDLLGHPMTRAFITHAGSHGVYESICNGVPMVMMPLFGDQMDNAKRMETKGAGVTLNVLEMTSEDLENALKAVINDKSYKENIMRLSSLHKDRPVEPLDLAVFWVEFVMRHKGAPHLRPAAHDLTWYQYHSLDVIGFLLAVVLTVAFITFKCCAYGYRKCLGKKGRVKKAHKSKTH", "assay": "Inhibition of raloxifene glucuronidation by recombinant UGT1A9 Supersomes", "conditions": "for % of control metabolism, raloxifene G1 / % of control metabolism, raloxifene G2: UGT1A9; for Inhibition of raloxifene glucuronidation, UGT1A9, first line per inhibitor (G1): first line (G1, metabolite not given); for Inhibition of raloxifene glucuronidation, UGT1A9, first line per inhibitor (G1) / Inhibition of raloxifene glucuronidation, UGT1A9, second line per inhibitor (G2): raloxifene 50 μM, 250 μg/ml Supersomes, 1 mM UDPGA, 15 min; for Inhibition of raloxifene glucuronidation, UGT1A9, second line per inhibitor (G2): second line (G2, metabolite not given)"}, "[6]": {"conditions": "inhibitor 10 μM, raloxifene 50 μM"}, "[7]": {"conditions": "inhibitor 25 μM, raloxifene 50 μM"}, "[8]": {"conditions": "inhibitor 50 μM, raloxifene 50 μM"}, "[9]": {"conditions": "inhibitor 100 μM, raloxifene 50 μM"}, "[10]": {"conditions": "inhibitor 500 μM, raloxifene 50 μM"}, "[11]": {"conditions": "liver lot 032101, inhibitor 50 μM"}, "[12]": {"conditions": "liver lot 062101, inhibitor 50 μM"}, "[13]": {"conditions": "liver lot 083000, inhibitor 50 μM"}, "[14]": {"conditions": "raloxifene 50 μM, inhibitor 10 μM"}, "[15]": {"conditions": "raloxifene 50 μM, inhibitor 25 μM"}, "[16]": {"conditions": "raloxifene 50 μM, inhibitor 50 μM"}, "[17]": {"conditions": "raloxifene 50 μM, inhibitor 100 μM"}},
  "data": [
    {"compound": "O=C(O[C@@H]1Cc2c(O)cc(O)cc2O[C@@H]1c1cc(O)c(O)c(O)c1)c1cc(O)c(O)c(O)c1", "note": "[Epigallocatechin gallate]", "values": [
      {"measurement": "Vmax of 7-HFC glucuronidation (fit of the experiment with this inhibitor)", "setting": "[1]", "result": "54 ± 3", "unit": "nmol/min/mg"},
      {"measurement": "Km", "setting": "[1]; read-out: Km of 7-HFC glucuronidation (fit of the experiment with this inhibitor)", "result": "75 ± 7", "unit": "µM"},
      {"measurement": "% of control metabolism (SD, n = 3), raloxifene glucuronide G1", "setting": "[2]; [6]", "result": "85 (3) %"},
      {"measurement": "% of control metabolism (SD, n = 3), raloxifene glucuronide G1", "setting": "[2]; [7]", "result": "56 (1) %"},
      {"measurement": "% of control metabolism (SD, n = 3), raloxifene glucuronide G1", "setting": "[2]; [8]", "result": "46 (2) %"},
      {"measurement": "% of control metabolism (SD, n = 3), raloxifene glucuronide G1", "setting": "[2]; [9]", "result": "22 (1) %"},
      {"measurement": "% of control metabolism (SD, n = 3), raloxifene glucuronide G1", "setting": "[2]; [10]", "result": "0 (0) %"},
      {"measurement": "% of control metabolism (SD, n = 3), raloxifene glucuronide G2", "setting": "[2]; [6]", "result": "82 (3) %"},
      {"measurement": "% of control metabolism (SD, n = 3), raloxifene glucuronide G2", "setting": "[2]; [7]", "result": "63 (1) %"},
      {"measurement": "% of control metabolism (SD, n = 3), raloxifene glucuronide G2", "setting": "[2]; [8]", "result": "50 (3) %"},
      {"measurement": "% of control metabolism (SD, n = 3), raloxifene glucuronide G2", "setting": "[2]; [9]", "result": "27 (2) %"},
      {"measurement": "% of control metabolism (SD, n = 3), raloxifene glucuronide G2", "setting": "[2]; [10]", "result": "0 (0) %"},
      {"measurement": "% of control metabolism, raloxifene G1", "setting": "[2]; [11]", "result": "54 (2) %"},
      {"measurement": "% of control metabolism, raloxifene G2", "setting": "[2]; [11]", "result": "50 (2) %"},
      {"measurement": "% of control metabolism, raloxifene G1", "setting": "[2]; [12]", "result": "68 (2) %"},
      {"measurement": "% of control metabolism, raloxifene G2", "setting": "[2]; [12]", "result": "41 (2) %"},
      {"measurement": "% of control metabolism, raloxifene G1", "setting": "[2]; [13]", "result": "46 (2) %"},
      {"measurement": "% of control metabolism, raloxifene G2", "setting": "[2]; [13]", "result": "50 (3) %"},
      {"measurement": "% of control metabolism, raloxifene G1", "setting": "[2]; [14]", "result": "85 (3) %"},
      {"measurement": "% of control metabolism, raloxifene G2", "setting": "[2]; [14]", "result": "82 (3) %"},
      {"measurement": "% of control metabolism, raloxifene G1", "setting": "[2]; [15]", "result": "56 (1) %"},
      {"measurement": "% of control metabolism, raloxifene G2", "setting": "[2]; [15]", "result": "63 (1) %"},
      {"measurement": "% of control metabolism, raloxifene G1", "setting": "[2]; [16]", "result": "46 (2) %"},
      {"measurement": "% of control metabolism, raloxifene G2", "setting": "[2]; [16]", "result": "50 (3) %"},
      {"measurement": "% of control metabolism, raloxifene G1", "setting": "[2]; [17]", "result": "22 (1) %"},
      {"measurement": "% of control metabolism, raloxifene G2", "setting": "[2]; [17]", "result": "27 (2) %"},
      {"measurement": "residual metabolism (percentage of control), zidovudine glucuronidation", "setting": "[3]; inhibitor 50 μM", "result": "70 (1) %"},
      {"measurement": "residual metabolism (percentage of control), zidovudine glucuronidation", "setting": "[3]; inhibitor 100 μM", "result": "60 (2) %"},
      {"measurement": "residual metabolism (percentage of control), zidovudine glucuronidation", "setting": "[3]; inhibitor 200 μM", "result": "39 (2) %"},
      {"measurement": "residual metabolism (percentage of control), zidovudine glucuronidation", "setting": "[3]; inhibitor 500 μM", "result": "18 (1) %"},
      {"measurement": "residual metabolism (percentage of control), labetalol LG1", "setting": "[4]", "result": "55 (2) %"},
      {"measurement": "residual metabolism (percentage of control), labetalol LG2", "setting": "[4]", "result": "52 (5) %"},
      {"measurement": "residual metabolism (% of control), 2ME2 MG1", "setting": "[5]; inhibitor 25 μM", "result": "66 (2) %"},
      {"measurement": "residual metabolism (% of control), 2ME2 MG1", "setting": "[5]; inhibitor 50 μM", "result": "50 (3) %"},
      {"measurement": "residual metabolism (% of control), 2ME2 MG1", "setting": "[5]; inhibitor 100 μM", "result": "35 (2) %"},
      {"measurement": "% of control metabolism, raloxifene G1", "setting": "UGT1A9; inhibitor 25 μM", "result": "58 (1) %"},
      {"measurement": "% of control metabolism, raloxifene G2", "setting": "UGT1A9; inhibitor 25 μM", "result": "50 (1) %"},
      {"measurement": "% of control metabolism, raloxifene G1", "setting": "UGT1A9; inhibitor 50 μM", "result": "33 (4) %"},
      {"measurement": "% of control metabolism, raloxifene G2", "setting": "UGT1A9; inhibitor 50 μM", "result": "22 (2) %"},
      {"measurement": "Inhibition of raloxifene glucuronidation, UGT1A9, first line per inhibitor (G1)", "setting": "UGT1A9; inhibitor 25 μM", "result": "58 (1)"},
      {"measurement": "Inhibition of raloxifene glucuronidation, UGT1A9, first line per inhibitor (G1)", "setting": "UGT1A9; inhibitor 50 μM", "result": "33 (4)"},
      {"measurement": "Inhibition of raloxifene glucuronidation, UGT1A9, second line per inhibitor (G2)", "setting": "UGT1A9; inhibitor 25 μM", "result": "50 (1)"},
      {"measurement": "Inhibition of raloxifene glucuronidation, UGT1A9, second line per inhibitor (G2)", "setting": "UGT1A9; inhibitor 50 μM", "result": "22 (2)"}
    ]}
  ]
}
